# Experimental data: US12577217B2, “15-PGDH inhibitor” (KYORIN Pharmaceutical Co., Ltd., priority 2019, dated 2026)
# Biological target: T1, recombinant human 15-PGDH (Homo sapiens, UniProt P15428)
# T1 construct: purchased R&D Systems
# T1 sequence (P15428 1-266): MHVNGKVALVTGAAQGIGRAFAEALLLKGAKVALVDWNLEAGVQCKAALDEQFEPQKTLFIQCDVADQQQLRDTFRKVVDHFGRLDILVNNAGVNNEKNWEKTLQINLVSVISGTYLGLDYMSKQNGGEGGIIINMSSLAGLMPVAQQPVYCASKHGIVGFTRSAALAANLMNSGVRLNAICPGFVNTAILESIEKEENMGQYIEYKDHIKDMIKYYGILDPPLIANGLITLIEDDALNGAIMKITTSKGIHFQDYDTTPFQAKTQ
# Assay: 15-PGDH enzyme inhibition test
# Assay type: biochemical
# Conditions: 4 nM recombinant human 15-PGDH, 30 μM PGE2, 1 mM NAD+, 60 minutes after starting the reaction; read-out: IC50 Value
# Description: 15-PGDH Enzyme Inhibition Test
# A test compound and 4 nM recombinant human 15-PGDH (R&D Systems) were added, in 50 mM Tris-HCl (pH 8.0) containing 0.01% TWEEN 20 (Sigma) and 0.01% bovine gamma globulin (Sigma), to a 384-well Flat Bottom Black plate (Corning, 3820), and the resultant was allowed to stand still at room temperature for 12 minutes, and 30 μM PGE2 (Cayman Chemical) and 1 mM NAD+ (Sigma) were added thereto to start the reaction. 60 minutes after starting the reaction, measurement was performed using Synergy 2 (BioTeck) at an excitation wavelength of 340 nm and a fluorescence wavelength of 440 nm. Assuming that a fluorescence signal obtained with an assay buffer added instead of the test compound and NAD+ was 100% and that a signal obtained with NAD+ added was 0%, a concentration corresponding to 50% inhibition plotted on a concentration-reaction curve of the test compound was defined as an IC50 value. Incidentally, in the following tables, an IC50 value smaller than 10 nM was shown as +++, an IC50 value equal to or larger than 10 nM and smaller than 100 nM was shown as ++, and an IC50 value equal to or larger than 100 nM was shown as +.
row,Structure (SMILES),IC50 [nM]
1,O=C(NC1COC1)c1ccc(N2CCCc3cc(C(=O)N4CCCCC4)cnc32)cc1F [Example 1-62],< 10
2,CCOCCN1Cc2cc(N3CCCc4cc(C(=O)N5CCCCC5)cnc43)ccc2C1=O [Example 1-63],< 10
3,COCCN1Cc2cc(N3CCCc4cc(C(=O)N5CCCCC5)cnc43)ccc2C1=O [Example 1-64],< 10
4,O=C(c1cnc2c(c1)CCCN2c1ccc2c(c1)CN(CC1COC1)C2=O)N1CCCCC1 [Example 1-65],< 10
5,O=C(c1cnc2c(c1)CCCN2c1ccc2c(c1)CN(C1COC1)C2=O)N1CCCCC1 [Example 1-66],< 10
6,CN1Cc2cc(N3CCCc4cc(C(=O)N5CCCCC5)cnc43)cnc2C1=O [Example 1-67],< 10
7,CN1Cc2cc(N3CCCc4cc(C(=O)N5CCCCC5)cnc43)ccc2C1=O [Example 1-68],< 10
8,CNC(=O)c1ncc(N2CCCc3cc(C(=O)N4CCCCC4)cnc32)cc1F [Example 1-69],< 10
9,CCOCCn1nc2cc(N3CCCc4cc(C(=O)N5CCCCC5)cnc43)ccn2c1=O [Example 1-70],< 10
10,COCCOCCn1nc2cc(N3CCCc4cc(C(=O)N5CCCCC5)cnc43)ccn2c1=O [Example 1-71],< 10
11,COCCN1Cc2cc(N3CCCc4cc(C(=O)N5CCCCC5)cnc43)ncc2C1=O [Example 1-72],10 to 100
12,CCOCCN1Cc2cc(N3CCCc4cc(C(=O)N5CCCCC5)cnc43)ncc2C1=O [Example 1-73],10 to 100
13,O=C(c1cnc2c(c1)CCCN2c1cc2c(cn1)C(=O)N(C1COC1)C2)N1CCCCC1 [Example 1-74],10 to 100
14,CCn1nc2cc(N3CCCc4cc(C(=O)N5CCC(F)(F)CC5)cnc43)ccn2c1=O [Example 1-75],< 10
15,COCn1nc2cc(N3CCCc4cc(C(=O)N5CCC(F)(F)CC5)cnc43)ccn2c1=O [Example 1-76],< 10
16,CCOCn1nc2cc(N3CCCc4cc(C(=O)N5CCC(F)(F)CC5)cnc43)ccn2c1=O [Example 1-77],< 10
17,COCCn1nc2cc(N3CCCc4cc(C(=O)N5CCC(F)(F)CC5)cnc43)ccn2c1=O [Example 1-78],< 10
18,CCOCCn1nc2cc(N3CCCc4cc(C(=O)N5CCC(F)(F)CC5)cnc43)ccn2c1=O [Example 1-79],< 10
19,COCCOCCn1nc2cc(N3CCCc4cc(C(=O)N5CCC(F)(F)CC5)cnc43)ccn2c1=O [Example 1-80],< 10
20,CN1Cc2cc(N3CCCc4cc(C(=O)N5CCC(F)(F)CC5)cnc43)ccc2C1=O [Example 1-81],< 10
21,COCCN1Cc2cc(N3CCCc4cc(C(=O)N5CCC(F)(F)CC5)cnc43)ccc2C1=O [Example 1-82],< 10
22,CCOCCN1Cc2cc(N3CCCc4cc(C(=O)N5CCC(F)(F)CC5)cnc43)ccc2C1=O [Example 1-83],< 10
23,CN1Cc2cc(N3CCCc4cc(C(=O)N5CCC(F)(F)CC5)cnc43)cnc2C1=O [Example 1-84],< 10
24,CN1Cc2cc(N3CCCc4cc(C(=O)N5CCC(F)(F)CC5)cnc43)ncc2C1=O [Example 1-85],10 to 100
25,COCCN1Cc2cc(N3CCCc4cc(C(=O)N5CCC(F)(F)CC5)cnc43)ncc2C1=O [Example 1-86],10 to 100
26,Cn1cnc2cc(N3CCCc4cc(C(=O)N5CCCCC5)cnc43)ccc2c1=O [Example 1-87],< 10
27,Cn1cnc2cc(N3CCCc4cc(C(=O)N5CCC(F)(F)CC5)cnc43)ccc2c1=O [Example 1-88],< 10
28,COC(=O)c1cn(C)c2cc(N3CCOc4cc(C(=O)N5CCCCC5)cnc43)ccc12 [Example 1-90],10 to 100

# Results, then the molecule that gave them:
row,IC50 [nM],Structure (SMILES)
1,10 to 100,Cn1ccc2ccc(N3CCOc4cc(C(=O)N5CCCCC5)cnc43)cc21 [Example 1-91]
2,< 10,COC(=O)c1cc2ccc(N3CCOc4cc(C(=O)N5CCCCC5)cnc43)cc2n1C [Example 1-92]
3,< 10,Cn1nc2cc(N3CC(C)(C)Oc4cc(C(=O)N5CCCCC5)cnc43)ccn2c1=O [Example 1-93]
4,< 10,Cn1nc2cc(N3CCCc4cc(C(=O)N5CCCCC5)cnc43)ccn2c1=O [Example 1-94]
5,< 10,C[C@H]1COc2cc(C(=O)N3CCCCC3)ccc2N(c2ccn3c(=O)n(C)nc3c2)C1 [Example 1-95]
6,< 10,C[C@@H]1COc2cc(C(=O)N3CCCCC3)ccc2N(c2ccn3c(=O)n(C)nc3c2)C1 [Example 1-96]
7,< 10,Cn1nc2cc(N3CCSc4cc(C(=O)N5CCCCC5)ccc43)ccn2c1=O [Example 1-97]
8,10 to 100,Cn1nc2cc(N3CCCCOc4cc(C(=O)N5CCCCC5)cnc43)ccn2c1=O [Example 1-98]
9,< 10,Cn1nc2cc(N3CCCOc4cc(C(=O)N5CCCCC5)cnc43)ccn2c1=O [Example 1-99]
10,< 10,COc1c(C(=O)N2CCCCC2)ccc2c1OCCN2c1ccn2c(=O)n(C)nc2c1 [Example 1-100]
11,< 10,CN1Cc2cc(N3CCOc4cc(C(=O)N5CCCCC5)cnc43)cnc2C1=O [Example 1-101]
12,10 to 100,CN1Cc2nc(N3CCOc4cc(C(=O)N5CCCCC5)cnc43)ccc2C1=O [Example 1-102]
13,< 10,CN1Cc2cc(N3CCOc4cc(C(=O)N5CCCCC5)cnc43)ncc2C1=O [Example 1-103]
14,< 10,O=C(c1cnc2c(c1)OCCN2c1ccn2nnnc2c1)N1CCCCC1 [Example 1-104]
15,< 10,O=C(c1cnc2c(c1)OCCN2c1ccn2cnnc2c1)N1CCCCC1 [Example 1-105]
16,< 10,O=C(c1cnc2c(c1)OCCN2c1ccn2ncnc2c1)N1CCCCC1 [Example 1-106]

row,IC50 [nM],Structure (SMILES)
1,< 10,Cn1nc2cc(N3CCCCc4cc(C(=O)N5CCCCC5)cnc43)ccn2c1=O [Example 1-107]
2,10 to 100,Cn1nc2cc(N3CCOCc4cc(C(=O)N5CCCCC5)cnc43)ccn2c1=O [Example 1-108]
3,< 10,Cn1nc2cc(N3CCc4cc(C(=O)N5CCCCC5)cnc43)ccn2c1=O [Example 1-109]
4,< 10,Cn1nc2cc(N3CCOc4cc(SC5CCCCC5)cnc43)ccn2c1=O [Example 1-110]
5,< 10,Cn1nc2cc(N3CCOc4cc(C(=O)C5CCCCC5)cnc43)ccn2c1=O [Example 1-111]
6,< 10,Cn1nc2cc(N3CCCc4cc(C(=O)N5CCC[C@H](CF)C5)cnc43)ccn2c1=O [Example 1-112]
7,< 10,CCn1nc2cc(N3CCCc4cc(C(=O)N5CCC[C@H](CF)C5)cnc43)ccn2c1=O [Example 1-113]
8,< 10,COCn1nc2cc(N3CCCc4cc(C(=O)N5CCC[C@H](CF)C5)cnc43)ccn2c1=O [Example 1-114]
9,< 10,CCOCn1nc2cc(N3CCCc4cc(C(=O)N5CCC[C@H](CF)C5)cnc43)ccn2c1=O [Example 1-115]
10,< 10,COCCn1nc2cc(N3CCCc4cc(C(=O)N5CCC[C@H](CF)C5)cnc43)ccn2c1=O [Example 1-116]
11,< 10,CCOCCn1nc2cc(N3CCCc4cc(C(=O)N5CCC[C@H](CF)C5)cnc43)ccn2c1=O [Example 1-117]
12,< 10,COCCOCCn1nc2cc(N3CCCc4cc(C(=O)N5CCC[C@H](CF)C5)cnc43)ccn2c1=O [Example 1-118]
13,< 10,Cn1nc2cc(N3CCCc4cc(C(=O)N5CCC[C@@H](CF)C5)cnc43)ccn2c1=O [Example 1-119]
14,< 10,CCn1nc2cc(N3CCCc4cc(C(=O)N5CCC[C@@H](CF)C5)cnc43)ccn2c1=O [Example 1-120]
15,< 10,COCn1nc2cc(N3CCCc4cc(C(=O)N5CCC[C@@H](CF)C5)cnc43)ccn2c1=O [Example 1-121]
